Some test systems named below: A498; A549; HCC 2998; HOP-62; K562; KM-20L2; LOX IMVI; NCI-H23; NCI-H522; NCI/ADR-RES; OVCAR-4; RPMI-8226; SNB-75; SW-620; U-251.
Common to all, as to experiment: NCI tumour cell line growth inhibition, 48 h

The results in this text go back to ChEMBL document CHEMBL1201862, “PubChem BioAssay data set” (2004).

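The compound was tested at five concentrations on cells cultured in 96-well plates, with a 48-hour exposure period. GI50 is the concentration that inhibits growth by half.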 Calls of active or inactive are those of the source. No stated cut-off is given here; in the data, active = GI50 up to about 1.1 µM and inactive = higher.

Consider `CCCC(=O)OCC1OC(n2ccc(N)nc2=O)C(OC(=O)CCC)C1OC(=O)CCC` (stereo not given), for which the GI50 was 5.77 µM (inactive) in the assay on A498; 8.05 µM (inactive) in the assay on A549; > 100 µM (inactive) in the assay on HCC 2998; 0.0957 µM (active) in the assay on HOP-62; > 100 µM (inactive) in the assay with K562; 11.4 µM (inactive) with KM-20L2. In addition, the GI50 was 3.03 µM (inactive) in the assay with LOX IMVI; 5.01 µM (inactive) in the assay with NCI-H23; 10.6 µM (inactive) in the assay on NCI-H522; 68.9 µM (inactive) in the assay with NCI/ADR-RES; > 100 µM (inactive) in the assay with OVCAR-4; > 100 µM (inactive) in the assay with RPMI-8226. In addition, the GI50 with SNB-75 is > 48.9 µM (inactive); in the assay on SW-620, > 100 µM (inactive); with U-251, 35 µM (inactive).
With `COC(=O)c1ccc(/N=N/N(C)COc2ccc(Br)cc2)cc1`, the GI50 is 37.7 µM (inactive) with A498; 66.7 µM (inactive) in the assay with A549; 31.7 µM (inactive) with HCC 2998; > 100 µM (inactive) with HOP-62; 38.1 µM (inactive) in the assay with K562; > 81.1 µM (inactive) in the assay on KM-20L2. The GI50 was 49.2 µM (inactive) in the assay on LOX IMVI; > 68.5 µM (inactive) with NCI-H23; 43.5 µM (inactive) with NCI-H522; > 100 µM (inactive) in the assay with NCI/ADR-RES; 54.2 µM (inactive) in the assay with OVCAR-4; 24.5 µM (inactive) in the assay on RPMI-8226. Further, the GI50 in the assay with SNB-75 was 57.3 µM (inactive); in the assay with SW-620, > 90.2 µM (inactive); with U-251, > 71.3 µM (inactive).
In the case of `CC(C)Cc1ccc(C(C)C(=O)N2CCN(/C=C/c3ccccc3)CC2)cc1` (stereo not given), the GI50 in the assay with A498 is 16.4 µM (inactive); in the assay on A549, 11.5 µM (inactive); in the assay on HCC 2998, 17.9 µM (inactive); with HOP-62, 15.8 µM (inactive); in the assay with K562, 5.58 µM (inactive); in the assay with KM-20L2, 15.5 µM (inactive). Moreover, the GI50 was 18.7 µM (inactive) with LOX IMVI; 13.2 µM (inactive) in the assay with NCI-H23; 11.6 µM (inactive) with NCI-H522; 13.1 µM (inactive) with NCI/ADR-RES; 11.9 µM (inactive) with OVCAR-4; 5.04 µM (inactive) with RPMI-8226. The GI50 was 14 µM (inactive) in the assay with SNB-75, 15.6 µM (inactive) in the assay with SW-620 and 12.9 µM (inactive) in the assay on U-251.
